# Patent publication US20090197878A1, “SUBSTITUTED BENZO[d][1,3]OXAZIN-2(4H)-ONES AND RELATED DERIVATIVES AND THEIR USES FOR MODULATING THE PROGESTERONE RECEPTOR” (Wyeth, priority 2008, published 2009)
# pIC50: −log10 of the molar value.
# What was measured:
# [1] = target: T1, progesterone receptor (PR) (Homo sapiens, UniProt P06401); assay: Progesterone receptor whole cell competition binding assay using T47D cells; conditions: intact T47D cells, 3 nM 3H-progesterone, 3 hours at 37° C.
# T1 construct: in live, intact (whole) cells, using the human breast carcinoma T47D cell line; endogenous in cells; host or cells: T47D human breast carcinoma cells
# T1 sequence (P06401 1-933): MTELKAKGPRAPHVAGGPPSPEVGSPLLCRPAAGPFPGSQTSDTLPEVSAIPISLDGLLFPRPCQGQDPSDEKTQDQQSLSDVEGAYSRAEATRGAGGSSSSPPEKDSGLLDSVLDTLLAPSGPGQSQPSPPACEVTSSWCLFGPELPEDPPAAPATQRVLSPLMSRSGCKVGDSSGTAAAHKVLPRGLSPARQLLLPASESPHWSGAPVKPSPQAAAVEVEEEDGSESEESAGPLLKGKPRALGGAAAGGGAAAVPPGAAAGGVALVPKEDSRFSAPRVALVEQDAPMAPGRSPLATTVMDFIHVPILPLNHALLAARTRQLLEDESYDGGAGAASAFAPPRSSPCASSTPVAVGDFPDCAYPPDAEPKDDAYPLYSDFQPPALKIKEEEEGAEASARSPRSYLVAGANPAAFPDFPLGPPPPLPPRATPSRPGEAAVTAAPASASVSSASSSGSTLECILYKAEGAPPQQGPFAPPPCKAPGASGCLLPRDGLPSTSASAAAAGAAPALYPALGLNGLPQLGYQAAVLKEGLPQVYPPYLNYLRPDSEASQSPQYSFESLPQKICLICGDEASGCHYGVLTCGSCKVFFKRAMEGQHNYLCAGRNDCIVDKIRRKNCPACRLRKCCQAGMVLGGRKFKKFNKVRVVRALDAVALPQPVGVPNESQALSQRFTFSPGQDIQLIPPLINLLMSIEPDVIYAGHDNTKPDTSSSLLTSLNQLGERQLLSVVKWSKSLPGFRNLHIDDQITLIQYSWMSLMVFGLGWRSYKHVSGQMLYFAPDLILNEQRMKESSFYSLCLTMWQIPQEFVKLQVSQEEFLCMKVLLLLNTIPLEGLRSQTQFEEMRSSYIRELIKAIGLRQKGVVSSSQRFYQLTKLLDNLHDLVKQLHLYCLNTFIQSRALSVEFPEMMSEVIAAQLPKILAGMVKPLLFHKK
# Method: The purpose of this example is to evaluate the progesterone receptor (PR) binding activity of progestins or antiprogestins in live, intact (whole) cells, using the human breast carcinoma T47D cell line and ^3H-progesterone as the labeled ligand.
# A. Reagents: • Culture medium: • (i) 5% RC which is phenol red free Dulbecco's Modified Eagles Medium (DMEM):F12 (1:1) (GIBCO, BRL) supplemented with 5% (v/v) charcoal stripped fetal bovine serum (not heat-inactivated), 100 U/mL penicillin, 100 μg/mL streptomycin, and 2 mM of the GlutaMax™ reagent (GIBCO, BRL) • (ii) 10% RC is 5% RC supplemented with 10% (v/v) FBS • ^3H-Progesterone: Perkin Elmer Life Science, cat# NET-381 (typically around 102 Ci/mmol) • Liquid Scintillation Cocktail: Beckman Coulter, the Ready-Safe™ reagent; cat# 141349 • Tissue Culture Plates: 96 well, clear bottom, white, plates (VWR Part # 29443-150 or Perkin Elmer Part # 3983498)
# B. T47D Cell Culture: • T47D cells are maintained in 10% RC media at 37° C. in a 5% CO2/humidified atmosphere and need to be split twice weekly for proper response. Cells are plated in 10% RC the day before binding assay at 50,000 cells per well in the white, clear bottom plates purchased through VWR or Perkin Elmer.
# Cells plated the day prior to the assay in white clear bottom plates are used. A master compound plate is set up containing control and test compounds at 20X final desired concentration for the competition binding. A typical dose range of 20X concentrations are (in nM); 200,000; 20,000; 6000; 2000; 600; 200; 20; and 2. Final concentrations are then (in nM); 10,000; 1000; 300; 100; 30; 10; 1; 0.1. Control compounds are typically run 10-fold lower than this and include a 0, or vehicle, control well. A stock of 60 nM ^3H-progesterone (20X) is also prepared at a volume needed of 10 μL per well.
# Media on cells are replaced with 180 μL of 5% RC. Ten microliters (10 μL) of 60 nM ^3H-progesterone (for final concentration of 3 nM) is added immediately followed by 10 μL of 20X test or control compounds. Compounds are incubated for 3 hours at 37° C. A time course study found no difference between 2 and 4 hours incubation.
# Following incubation, media is carefully removed and cells are washed 3X with 200 μL 5% RC each wash. Fifty microliters of liquid scintillation cocktail is added and the plates are shaken vigorously for a minimum of 15 minutes. Plates are read on the Wallac Microbeta® 1450 plate reader.
# D. Analysis of Results: • Square root-transformed data are used for analysis of variance and calculation of IC50. SAS software (SAS Institute, Inc.) is used for all the statistical analysis.
# E. Reference Compounds: • Progesterone is used as a reference progestin and RU486 as a reference antiprogestin.
# [2] = tested on: alkaline phosphatase activity in T47D cells; assay: Effects of progestins and antiprogestins on alkaline phosphatase activity in T47D cells; format: cell-based; conditions: Homo sapiens; for pIC50: antagonist mode in the presence of 1 nM progesterone, 24 hours
# Method: The purpose of this example is to identify progestins or antiprogestins by determining a compound's effect on alkaline phosphatase activity in T47D cells.
# A. Reagents: • Culture medium: Dulbecco's Modified Eagle Medium (DMEM):F12 (1:1) (GIBCO, BRL) supplemented with 5% (v/v) charcoal stripped fetal bovine serum (not heat-inactivated), 100 U/mL penicillin, 100 μg/mL streptomycin, and 2 mM of the GlutaMax® reagent (GIBCO, BRL). • Alkaline phosphatase assay buffer: • I. 0.1M Tris-HCl, pH 9.8, containing 0.2% Triton® X-100 reagent • II. 0.1M Tris-HCl, pH 9.8, containing 4 mM p-nitrophenyl phosphate (Sigma).
# Frozen T47D cells are thawed in a 37° C. water bath and diluted to 280,000 cells/mL in culture medium. To each well in a 96-well plate (Falcon, Becton Dickinson Labware), was added 180 μL of diluted cell suspension. Twenty μL of reference or test compounds diluted in the culture medium is then added to each well. When testing for progestin antagonist activity, reference antiprogestins or test compounds are added in the presence of 1 nM progesterone. The cells are incubated at 37° C. in a 5% CO2/humidified atmosphere for 24 hours. For high throughput screening, one concentration of each compound will be tested at 0.3 μg/mL. Based on an average molecular weight of 300 g/mol for the compounds in the library, the concentration is approximately 1 μM. Compounds active in this assay can be tested in dose response assays to determine EC50 and IC50.
# C. Alkaline Phosphatase Enzyme Assay: • At the end of treatment, the medium is removed from the plate. Fifty μL of assay buffer I is added to each well. The plates are shaken in a titer plate shaker for 15 minutes. Then 150 μL of assay buffer II is added to each well. Optical density measurements are taken at 5 minute intervals for 30 minutes at a test wavelength of 405 nm.
# D. Analysis of Results: Analysis of Dose-Response Data • For reference and test compounds, a dose response curve is generated for dose (X-axis) vs. the rate of enzyme reaction (slope) (Y-axis). Square root-transformed data are used for analysis of variance and nonlinear dose response curve fitting for both agonist and antagonist modes. Huber weighting is used to down-weight the effects of outliers. EC50 or IC50 values are calculated from the retransformed values. JMP® software (SAS Institute, Inc.) is used for both one-way analysis of variance and non-linear dose response analysis in both single dose and dose response studies.
# E. Reference Compounds • Progesterone and trimegestone are reference progestins and RU486 is the reference antiprogestin. All reference compounds are run in full dose response curves and the EC50 and IC50 values are calculated.
SMILES,melting point [°C],pIC50 [1],pIC50 [2],"inhibition at 0.03 µM ([2]; at 30 nM, in the presence of 1 nM progesterone) [%]","inhibition at 3 µM ([2]; at 3000 nM, in the presence of 1 nM progesterone) [%]","inhibition at 0.3 µM ([2]; at 300 nM, in the presence of 1 nM progesterone) [%]"
"CC(C)/C(=C\C#N)c1ccc2c(c1)C(C)(C)OC(=O)N2 [Example 30, (2E)-3-(4,4-Dimethyl-2-oxo-1,4-dihydro-2H-3,1-benzoxazin-6-yl)-4-methylpent-2-enenitrile]",,6.11,7.07,,,
"COC(=O)/C=C(\C)c1ccc2c(c1)C(C)(C)OC(=O)N2 [Example 9, Methyl(2E)-3-(4,4-dimethyl-2-oxo-1,4-dihydro-2H-3,1-benzoxazin-6-yl)but-2-enoate]",131 to 132,7.07,7.21,,,
"CCC/C(=C\C#N)c1ccc2c(c1)C1(CCCCC1)OC(=O)N2 [Example 20, (2E)-3-(2-Oxo-1,2-dihydrospiro[3,1-benzoxazine-4,1′-cyclohexan]-6-yl)hex-2-enenitrile]",,7.33,7.25,,,
"CCC/C(=C\C#N)c1ccc2c(c1)C(CC)(CC)OC(=O)N2 [Example 25, (2E)-3-(4,4-Diethyl-2-oxo-1,4-dihydro-2H-3,1-benzoxazin-6-yl)hex-2-enenitrile]",121 to 124,7.31,7.79,,,
"CCC/C(=C\C#N)c1ccc2c(c1)C(C)(C)OC(=O)N2 [Example 29, (2E)-3-(4,4-Dimethyl-2-oxo-1,4-dihydro-2H-3,1-benzoxazin-6-yl)hex-2-enenitrile]",,6.98,,,,84

# Continued, in another order:
melting point [°C],pIC50 [1],pIC50 [2],SMILES,"inhibition at 0.03 µM ([2]; at 30 nM, in the presence of 1 nM progesterone) [%]","inhibition at 3 µM ([2]; at 3000 nM, in the presence of 1 nM progesterone) [%]","inhibition at 0.3 µM ([2]; at 300 nM, in the presence of 1 nM progesterone) [%]"
159 to 160,6.82,7.30,"CCC1(CC)OC(=O)Nc2ccc(/C(C)=C/C#N)cc21 [Example 22, (2E)-3-(4,4-Diethyl-2-oxo-1,4-dihydro-2H-3,1-benzoxazin-6-yl)but-2-enenitrile]",,,
,7.05,,"CC/C(=C\C#N)c1ccc2c(c1)C(C)(C)OC(=O)N2 [Example 28, (2E)-3-(4,4-Dimethyl-2-oxo-1,4-dihydro-2H-3,1-benzoxazin-6-yl)pent-2-enenitrile]",70,,
135 to 136,7.28,7.53,"CC/C(=C\C#N)c1ccc2c(c1)C(CC)(CC)OC(=O)N2 [Example 23, (2E)-3-(4,4-Diethyl-2-oxo-1,4-dihydro-2H-3,1-benzoxazin-6-yl)pent-2-enenitrile]",,,
213 to 215,5.86,,"C/C(=C/C#N)c1ccc2c(c1)C(C)(C)OC(=O)N2 [Example 12, (2Z)-3-(4,4-Dimethyl-2-oxo-1,4-dihydro-2H-3,1-benzoxazin-6-yl)but-2-enenitrile]",,25,
230 to 232,7.32,7.42,"C/C(=C\C#N)c1ccc2c(c1)C(C)(C)OC(=O)N2 [Example 13, (2E)-3-(4,4-Dimethyl-2-oxo-1,4-dihydro-2H-3,1-benzoxazin-6-yl)but-2-enenitrile]",,,
138 to 140,5.85,6.68,"CCC1(CC)OC(=O)Nc2ccc(/C(=C/C#N)C(C)C)cc21 [Example 27, (2E)-3-(4,4-Diethyl-2-oxo-1,4-dihydro-2H-3,1-benzoxazin-6-yl)-4-methylpent-2-enenitrile]",,,
205 to 206,7.08,7.10,"CC1(C)OC(=O)Nc2ccc(/C(=C/C#N)c3ccccc3)cc21 [Example 6, (2E)-3-(4,4-Dimethyl-2-oxo-1,4-dihydro-2H-3,1-benzoxazin-6-yl)-3-phenylacrylonitrile]",,,
